Reference: patent US20080039495A1, “Diamine Beta2 Adrenergic Receptor Agonists” (priority 2004, published 2008)

Experiments:
human β2-adrenoceptor = target: T1, human β2-adrenoceptor (Homo sapiens, UniProt P07550); assay: Whole-cell cAMP Flashplate assay, recombinant cell line (Test B); assay type: cell-based; conditions: for EC50: HEK-293 cells expressing cloned human β2-adrenoceptor, cAMP; for Selectivity β2/β1 (functional): ratio EC50(β1)/EC50(β2); for Selectivity β2/β3 (functional): ratio EC50(β3)/EC50(β2)
T1 construct: expressed in transfected cells
T1 sequence (P07550 whole entry): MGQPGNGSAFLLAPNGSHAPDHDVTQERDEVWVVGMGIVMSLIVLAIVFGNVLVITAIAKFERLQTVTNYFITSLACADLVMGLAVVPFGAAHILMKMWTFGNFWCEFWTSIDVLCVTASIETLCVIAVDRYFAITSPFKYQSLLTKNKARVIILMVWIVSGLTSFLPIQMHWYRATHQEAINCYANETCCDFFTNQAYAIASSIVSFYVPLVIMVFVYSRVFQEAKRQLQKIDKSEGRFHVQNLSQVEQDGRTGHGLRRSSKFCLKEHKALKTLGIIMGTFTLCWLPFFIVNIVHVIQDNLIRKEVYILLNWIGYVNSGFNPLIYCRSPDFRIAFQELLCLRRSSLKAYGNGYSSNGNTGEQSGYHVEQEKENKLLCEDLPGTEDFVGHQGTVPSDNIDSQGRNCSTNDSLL
Protocol: A HEK-293 cell line stably expressing cloned human β1 adrenergic receptor (clone H34.1) was grown to about 70%-90% confluency in medium consisting of DMEM supplemented with 10% FBS and 500 μg/mL Geneticin. A HEK-293 cell line stably expressing cloned human β2-adrenoceptor (clone H24.14) was grown in the same medium to full confluency. A CHO-K1 cell line stably expressing cloned human β3-adrenoceptor was grown to about 70%-90% confluency in Ham's F-12 medium supplemented with 10% FBS and with 800 μg/mL Geneticin added to every fifth passage. The day before the assay, cultures were switched to the same growth-media without antibiotics.
cAMP assays were performed in a radioimmunoassay format using the Flashplate Adenylyl Cyclase Activation Assay System with ^125I-cAMP (NEN SMP004, PerkinElmer Life Sciences Inc., Boston, Mass.), according to the manufacturers instructions.
On the day of the assay, cells were rinsed once with PBS, lifted with Versene 1:5,000 (0.2 g/L EDTA in PBS) and counted. Cells were pelleted by centrifugation at 1,000 rpm and resuspended in stimulation buffer prewarmed to 37° C. For cells expressing the β1-adrenoceptor, 10 nM ICI 118,551 were added to the stimulation buffer, and cells were incubated for 10 min at 37° C. Cells were used at final concentrations of 30,000, 40,000 and 70,000 cells/well for the β1-adrenoceptor-, the β2-adrenoceptor- and the β3-adrenoceptor expressing cells, respectively. Compounds were dissolved to a concentration of 10 mM in DMSO, then diluted to 1 mM in 50 mM Gly-HCl pH 3.0, and from there serially diluted into assay buffer (75 mM Tris/HCl pH 7.4 @ 25° C., 12.5 mM MgCl2, 1 mM EDTA, 0.2% BSA). Compounds were tested in the assay at 11 different concentrations, ranging from 10 μM to […]. Reactions were incubated for 10 min at 37° C. and stopped by addition of 100 μL ice-cold detection buffer. Plates were sealed, incubated over night at 4° C. and counted the next morning in a topcount scintillation counter (Packard BioScience Co., Meriden, Conn.). The amount of cAMP produced per mL of reaction was calculated based on the counts observed for the samples and cAMP standards, as described in the manufacturer's user manual. Data were analyzed by nonlinear regression analysis with the GraphPad Prism Software package (GraphPad Software, Inc., San Diego, Calif.) using the 3-parameter model for sigmoidal dose-response (Hill slope=1). Agonist potencies were expressed as pEC50 values. Functional β2/β1 selectivity was defined as the ratio EC50(β1)/EC50(β2), and correspondingly functional β2/β3 selectivity was defined as the ratio EC50(β3)/EC50(β2).

[1] = test system: acetylcholine-induced bronchospasm; assay: Bronchoprotection against acetylcholine-induced bronchospasm in a guinea pig model (Test D); assay type: in vivo; conditions: inhalation
Protocol: Groups of 6 male guinea pigs (Duncan-Hartley (HsdPoc:DH) Harlan, Madison, Wis.) weighing between 250 and 350 g were individually identified by cage cards. Throughout the study animals were allowed access to food and water ad libitum.
Test compounds were administered via inhalation over 10 minutes in a whole-body exposure dosing chamber (R&S Molds, San Carlos, Calif.). The dosing chambers were arranged so that an aerosol was simultaneously delivered to 6 individual chambers from a central manifold. Following a 60 minute acclimation period and a 10 minute exposure to nebulized water for injection (WFI), guinea pigs were exposed to an aerosol of test compound or vehicle (WFI). These aerosols were generated from aqueous solutions using an LC Star Nebulizer Set (Model 22F51, PARI Respiratory Equipment, Inc. Midlothian, Va.) driven by a mixture of gases (CO2=5%, O2=21% and N2=74%) at a pressure of 22 psi. The gas flow through the nebulizer at this operating pressure was approximately 3 L/minute. The generated aerosols were driven into the chambers by positive pressure. No dilution air was used during the delivery of aerosolized solutions. During the 10 minute nebulization, approximately 1.8 mL of solution was nebulized. This was measured gravimetrically by comparing pre- and post-nebulization weights of the filled nebulizer.
The bronchoprotective effects of compounds administered via inhalation were evaluated using whole body plethysmography at 1.5, 24, 48 and 72 hours post-dose. Forty-five minutes prior to the start of the pulmonary evaluation, each guinea pig was anesthetized with an intramuscular injection of ketamine (43.75 mg/kg), xylazine (3.50 mg/kg) and acepromazine (1.05 mg/kg). After the surgical site was shaved and cleaned with 70% alcohol, a 2-5 cm midline incision of the ventral aspect of the neck was made. Then, the jugular vein was isolated and cannulated with a saline-filled polyethylene catheter (PE-50, Becton Dickinson, Sparks, Md.) to allow for intravenous infusions of a 0.1 mg/mL solution of acetylcholine (Ach), (Sigma-Aldrich, St. Louis, Mo.) in saline. The trachea was then dissected free and cannulated with a 14G teflon tube (#NE-014, Small Parts, Miami Lakes, Fla.). If required, anesthesia was maintained by additional intramuscular injections of the aforementioned anesthetic cocktail. The depth of anesthesia was monitored and adjusted if the animal responded to pinching of its paw or if the respiration rate was greater than 100 breaths/minute.
Once the cannulations were complete, the animal was placed into a plethysmograph (#PLY3114, Buxco Electronics, Inc., Sharon, Conn.) and an esophageal pressure cannula was inserted to measure pulmonary driving pressure (pressure). The teflon tracheal tube was attached to the opening of the plethysmograph to allow the guinea pig to breathe room air from outside the chamber. The chamber was then sealed.
Once it was determined that baseline values were within the range 0.3-0.9 mL/cm H2O for compliance and within the range 0.1-0.199 cm H2O/mL per second for resistance, the pulmonary evaluation was initiated. A Buxco pulmonary measurement computer program enabled the collection and derivation of pulmonary values. Starting this program initiated the experimental protocol and data collection. The changes in volume over time that occurred within the plethysmograph with each breath were measured via a Buxco pressure transducer. By […] this signal over time, a measurement of flow was calculated for each breath. This signal, together with the pulmonary driving pressure changes, which were collected using a Sensym pressure transducer (#TRD4100), was connected via a Buxco (MAX 2270) preamplifier to a data collection interface (#'s SFT3400 and SFT3813). All other pulmonary parameters were derived from these two inputs.
Baseline values were collected for 5 minutes, after which time the guinea pigs were challenged with Ach. […]

[2] = target: T2, human β2 adrenergic receptor (Homo sapiens, UniProt P07550); assay: Radioligand binding assay (Test A); conditions: for Ki: [3H]dihydroalprenolol displacement, HEK-293 membranes, results expressed as pKi; for Selectivity β2/β1 (binding): ratio Ki(β1)/Ki(β2)
T2 construct: expressed in transfected cells; membrane preparation
T2 sequence (P07550 whole entry): as above
Protocol: HEK-293 derived cell lines stably expressing cloned human β1 or β2 adrenergic receptors, respectively, were grown to near confluency in DMEM with 10% dialyzed FBS in the presence of 500 μg/mL Geneticin. The cell monolayer was lifted with Versene 1:5,000 (0.2 g/L EDTA in PBS) using a cell scraper. Cells were pelleted by centrifugation at 1,000 rpm, and cell pellets were either stored frozen at −80° C. or membranes were prepared immediately. For preparation, cell pellets were resuspended in lysis buffer (10 mM Tris/HCL pH 7.4 @ 4° C., one tablet of “Complete Protease Inhibitor Cocktail Tablets with 2 mM EDTA” per 50 mL buffer (Roche cat.# 1697498, Roche Molecular Biochemicals, Indianapolis, Ind.)) and homogenized using a tight-fitting Dounce glass homogenizer (20 strokes) on ice. The homogenate was centrifuged at 20,000×g, the pellet was washed once with lysis buffer by resuspension and centrifugation as above. The final pellet was resuspended in membrane buffer (75 mM Tris/HCl pH 7.4, […], 1 mM EDTA @ 25° C.). Protein concentration of the membrane suspension was determined by the method of Bradford (Bradford M M., Analytical Biochemistry, 1976, 72, 248-54). Membranes were stored frozen in aliquots at −80° C.
Binding assays were performed in 96-well microtiter plates in a total assay volume of 100 μL with 5 μg membrane protein for membranes containing the human β2 adrenergic receptor, or 2.5 μg membrane protein for membranes containing the human β1 adrenergic receptor in assay buffer (75 mM Tris/HCl pH 7.4 @ 25° C., 12.5 mM MgCl2, 1 mM EDTA, 0.2% BSA). […] Non-specific binding was determined in the presence of 10 μM unlabeled alprenolol. […] Filter plates were washed three times with filtration buffer (75 mM Tris/HCl pH 7.4 @ 4° C., 12.5 mM MgCl2, 1 mM EDTA) to remove unbound radioactivity. Plates were dried, 50 μL Microscint-20 liquid scintillation fluid (Packard BioScience Co., Meriden, Conn.) was added and plates were counted in a Packard Topcount liquid scintillation counter (Packard BioScience Co., Meriden, Conn.). Binding data were analyzed by nonlinear regression analysis with the GraphPad Prism Software package (GraphPad Software, Inc., San Diego, Calif.) using the 3-parameter model for one-site competition. The curve minimum was fixed to the value for nonspecific binding, as determined in the presence of 10 μM alprenolol. Ki values for compounds were calculated from observed IC50 values and the Kd value of the radioligand using the Cheng-Prusoff equation (Cheng Y, and Prusoff W H., Biochemical Pharmacology, 1973, 22, 23, 3099-108). The receptor subtype selectivity was calculated as the ratio of Ki(β1)/Ki(β2).
Binding results are expressed as the negative decadic logarithm of the Ki values, pKi. […]

[3] = target: T2, human β2 adrenergic receptor; assay: Whole-cell cAMP Flashplate assay, lung epithelial cell line BEAS-2B endogenously expressing receptor (Test C); assay type: cell-based
Protocol: For the determination of agonist potencies and efficacies (intrinsic activities) in a cell line expressing endogenous levels of β2 adrenergic receptor, a human lung epithelial cell line (BEAS-2B) was used (ATCC CRL-9609, American Type Culture Collection, Manassas, Va.) (January B, et al., British Journal of Pharmacology, 1998, 123, 4, 701-11). Cells were grown to 75-90% confluency in complete, serum-free medium (LHC-9 MEDIUM containing Epinephrine and Retinoic Acid, cat #181-500, Biosource International, Camarillo, Calif.). The day before the assay, medium was switched to LHC-8 (No epinephrine or retinoic acid, cat #141-500, Biosource International, Camarillo, Calif.). […]
On the day of the assay, cells were rinsed with PBS, lifted by scraping with 5 mM EDTA in PBS, and counted. […]
Compounds were tested in the assay at 10 different concentrations, ranging from 10 μM to […]. Maximal response was determined in the presence of 10 μM Isoproterenol. […] Plates were sealed, incubated over night at 4° C. and counted the next morning in a topcount scintillation counter (Packard BioScience Co., Meriden, Conn.). The amount of cAMP produced per mL of reaction was calculated based on the counts observed for samples and cAMP standards, as described in the manufacturer's user manual. […]

## O=c1ccc2c([C@@H](O)CNCCCCCCOCCc3ccccc3)ccc(O)c2[nH]1 [Comparison Compound, 8-hydroxy-5-[(R)-1-hydroxy-2-(6-phenethyloxy-hexylamino)ethyl]-1H-quinolin-2-one, reference compound]
Human β2-adrenoceptor
  EC50: 50.1 pM
  Selectivity β2/β1 (functional): 54
  Selectivity β2/β3 (functional): 370
[1]
  Activity at 1.5 hours post dose: Yes
  Activity at 72 hours post dose: No
[1]; listed as comparison compound
  Activity at 72 hours post dose: not active
[2]
  Ki: 794 pM
  Selectivity β2/β1 (binding): 76

## O=c1ccc2c([C@@H](O)CNCCCCCCNCCc3ccccc3)ccc(O)c2[nH]1 [Compound of the Invention, 8-hydroxy-5-[(R)-1-hydroxy-2-(6-phenethylamino-hexylamino)ethyl]-1H-quinolin-2-one]
Human β2-adrenoceptor
  EC50: 316 pM
  Selectivity β2/β1 (functional): 107
  Selectivity β2/β3 (functional): 3900
[1]
  Activity at 1.5 hours post dose: Yes
  Activity at 72 hours post dose: Yes
[1]; listed as compound of the invention
  Activity at 72 hours post dose: demonstrated bronchoprotection
[3]; BEAS-2B endogenous cell line, cAMP
  EC50: 3160 pM
[3]; BEAS-2B, Emax relative to 10 μM isoproterenol, read-out: % Efficacy
  Emax: 68%
[2]
  Ki: 25100 pM
  Selectivity β2/β1 (binding): 18
